Values quoted from earlier work, collected in US20160304881A1, “DDR1 ANTAGONIST OR AN INHIBITOR OF DDR1 GENE EXPRESSION FOR USE IN THE PREVENTION OR TREATMENT OF CRESCENTIC GLOMERULONEPHRITIS” (INSERM (INSTITUT NATIONAL DE LA SANTE ET DE LA RECHERCHE …, priority 2011, published 2016).

Molecular target: DDR1 (Homo sapiens, UniProt Q08345)
Conditions: described in Day et al. (2008)

Sequence of DDR1 (Q08345 19-913): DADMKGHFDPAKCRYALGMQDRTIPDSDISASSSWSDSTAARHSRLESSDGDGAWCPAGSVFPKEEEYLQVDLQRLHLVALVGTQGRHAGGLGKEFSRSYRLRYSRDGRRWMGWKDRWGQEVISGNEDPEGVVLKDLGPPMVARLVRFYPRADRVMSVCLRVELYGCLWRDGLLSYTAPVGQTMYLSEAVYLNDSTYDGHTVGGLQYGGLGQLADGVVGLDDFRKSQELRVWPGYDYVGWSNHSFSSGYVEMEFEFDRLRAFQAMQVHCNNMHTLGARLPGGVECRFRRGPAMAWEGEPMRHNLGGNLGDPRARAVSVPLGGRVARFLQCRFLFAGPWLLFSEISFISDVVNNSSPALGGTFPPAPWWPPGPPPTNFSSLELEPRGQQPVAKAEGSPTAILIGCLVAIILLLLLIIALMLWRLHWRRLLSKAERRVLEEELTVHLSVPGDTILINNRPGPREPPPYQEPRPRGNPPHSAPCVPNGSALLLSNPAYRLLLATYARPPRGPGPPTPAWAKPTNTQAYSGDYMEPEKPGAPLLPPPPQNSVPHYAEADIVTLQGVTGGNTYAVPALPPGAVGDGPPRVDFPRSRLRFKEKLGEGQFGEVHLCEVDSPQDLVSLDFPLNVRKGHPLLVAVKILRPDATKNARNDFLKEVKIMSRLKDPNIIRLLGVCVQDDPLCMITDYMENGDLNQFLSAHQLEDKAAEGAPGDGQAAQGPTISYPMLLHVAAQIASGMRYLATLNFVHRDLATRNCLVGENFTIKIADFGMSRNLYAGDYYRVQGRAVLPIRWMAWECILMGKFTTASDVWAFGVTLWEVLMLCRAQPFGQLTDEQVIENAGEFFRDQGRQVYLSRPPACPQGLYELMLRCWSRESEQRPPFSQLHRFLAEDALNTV

| SMILES | collagen-induced DDR1 activation |
| --- | --- |
| Cc1nc(Nc2ncc(C(=O)Nc3c(C)cccc3Cl)s2)cc(N2CCN(CCO)CC2)n1 [dasatinib, N-(2-chloro-6-methylphenyl)-2-[[6-[4-(2-hydroxyethyl)-1-piperazinyl]-2-methyl-4-pyrimidinyl]amino]-5-thiazole carboxamide] | inhibitors of collagen-induced DDR1 activation |
| Cc1cn(-c2cc(NC(=O)c3ccc(C)c(Nc4nccc(-c5cccnc5)n4)c3)cc(C(F)(F)F)c2)cn1 [nilotinib, 4-methyl-N-[3-(4-methyl-1H-imidazol-1-yl)-5-(trifluoromethyl)phenyl]-3-[(4-pyridin-3-ylpyrimidin-2-yl)amino]benzamide] | inhibitors of collagen-induced DDR1 activation |
